Earlier results, collected in article PMC10817174, “Integrated drug response prediction models pinpoint repurposed drugs with effectiveness against rhabdomyosarcoma” (PLOS ONE, 2024).

Tested on: GDSC-SJCRH30 cell line
Settings: Table S2, published drug response ref Iorio et al. (2016); cited from earlier work

SMILES: CO[C@H]1C[C@@H]2CC[C@@H](C)[C@@](O)(O2)C(=O)C(=O)N2CCCC[C@H]2C(=O)O[C@H]([C@H](C)C[C@@H]2CC[C@@H](OC(=O)C(C)(CO)CO)[C@H](OC)C2)CC(=O)[C@H](C)/C=C(\C)[C@@H](O)[C@@H](OC)C(=O)[C@H](C)C[C@H](C)/C=C/C=C/C=C/1C [Temsirolimus]
- Iorio_SJCRH30: R

SMILES: O=C(NCCCNc1nc(Nc2cccc(NC(=O)N3CCCC3)c2)ncc1I)c1cccs1 [BX-795]
- Iorio_SJCRH30: R

SMILES: CCN(CC)CCCCNc1ncc2cc(-c3cc(OC)cc(OC)c3)c(NC(=O)NC(C)(C)C)nc2n1 [PD-173074]
- Iorio_SJCRH30: R

SMILES: Nc1cccc2c1CN(C1CCC(=O)NC1=O)C2=O (centres unmarked) [Lenalidomide]
- Iorio_SJCRH30: R

SMILES: CC(=O)O[C@@H]1[C@@H](OC(C)=O)[C@@H](O)[C@H](Oc2c(-c3ccc(O)cc3)oc3cc(O)cc(O)c3c2=O)O[C@H]1C [SL-0101-1]
- Iorio_SJCRH30: R

SMILES: Cn1c(=O)n(-c2ccc(C(C)(C)C#N)cc2)c2c3cc(-c4cnc5ccccc5c4)ccc3ncc21 [NVP-BEZ235]
- Iorio_SJCRH30: R

SMILES: COc1ccc(C2=N[C@@H](c3ccc(Cl)cc3)[C@@H](c3ccc(Cl)cc3)N2C(=O)N2CCNC(=O)C2)c(OC(C)C)c1 [Nutlin-3a]
- Iorio_SJCRH30: R

SMILES: O=C(NOCC1CC1)c1ccc(F)c(F)c1Nc1ccc(I)cc1Cl [CI-1040]
- Iorio_SJCRH30: R

SMILES: O=c1cc(N2CCOCC2)oc2c(-c3cccc4c3sc3ccccc34)cccc12 [NU-7441]
- Iorio_SJCRH30: R

SMILES: COc1cc(Nc2c(C#N)cnc3cc(OCCCN4CCN(C)CC4)c(OC)cc23)c(Cl)cc1Cl [Bosutinib]
- Iorio_SJCRH30: R

SMILES: CN(C)C/C=C/C(=O)Nc1ccc(C(=O)Nc2cccc(Nc3nccc(-c4cccnc4)n3)c2)cc1 [ZG-10]
- Iorio_SJCRH30: R

SMILES: CCOc1nc(NC(=O)Cc2cc(OC)ccc2OC)cc(N)c1C#N [JNK-Inhibitor-VIII]
- Iorio_SJCRH30: R

SMILES: NC(=O)c1ccc(N(C(N)=O)c2c(F)cccc2F)nc1-c1ccc(F)cc1F [VX-702]
- Iorio_SJCRH30: R

SMILES: CCOc1cc(N2CCC(O)CC2)ccc1Nc1ncc2c(n1)N(C)c1ccccc1C(=O)N2C [XMD8-92]
- Iorio_SJCRH30: R

SMILES: NC1(c2ccc(-c3nc4ccn5c(=O)[nH]nc5c4cc3-c3ccccc3)cc2)CCC1 [MK-2206]
- Iorio_SJCRH30: R

SMILES: COc1cc2c(Nc3ccc(NC(=O)c4ccccc4)cc3)ncnc2cc1OCCCN1CCOCC1 [ZM-447439]
- Iorio_SJCRH30: R

SMILES: NC(=O)Nc1cc(-c2cccc(F)c2)sc1C(=O)N[C@H]1CCCNC1 [AZD7762]
- Iorio_SJCRH30: S

SMILES: CC(=O)O[C@@]12CO[C@@H]1C[C@H](O)[C@@]1(C)C(=O)[C@H](O)C3=C(C)[C@@H](OC(=O)[C@H](O)[C@@H](NC(=O)OC(C)(C)C)c4ccccc4)C[C@@](O)([C@@H](OC(=O)c4ccccc4)[C@H]21)C3(C)C [Docetaxel]
- Iorio_SJCRH30: R

SMILES: CNC(=O)c1ccccc1Sc1ccc2c(/C=C/c3ccccn3)n[nH]c2c1 [Axitinib]
- Iorio_SJCRH30: R

SMILES: CNC(=O)c1ccc(Nc2cc(Nc3ccccc3S(=O)(=O)C(C)C)c3cc[nH]c3n2)nc1 [HG-5-113-01]
- Iorio_SJCRH30: R

SMILES: CS(=O)(=O)c1ccc(C(=O)Nc2ccc(Cl)c(-c3ccccn3)c2)c(Cl)c1 [Vismodegib]
- Iorio_SJCRH30: R

SMILES: CC[C@@]1(O)C(=O)OCc2c1cc1n(c2=O)Cc2cc3ccccc3nc2-1 [Camptothecin]
- Iorio_SJCRH30: R

SMILES: Cc1ccc(-n2nc(C(C)(C)C)cc2NC(=O)Nc2ccc(OCCN3CCOCC3)c3ccccc23)cc1 [BIRB-0796]
- Iorio_SJCRH30: R

SMILES: Nc1ccn([C@@H]2O[C@H](CO)[C@@H](O)[C@@H]2O)c(=O)n1 [Cytarabine]
- Iorio_SJCRH30: S

SMILES: N.N.[Cl][Pt][Cl] [Cisplatin]
- Iorio_SJCRH30: R

SMILES: C[C@]12O[C@H](C[C@]1(O)CO)n1c3ccccc3c3c4c(c5c6ccccc6n2c5c31)CNC4=O [CEP-701]
- Iorio_SJCRH30: R

SMILES: O=C1NC(=NCc2cccs2)S/C1=C\c1ccc2ncccc2c1 [RO-3306]
- Iorio_SJCRH30: R

SMILES: COc1cc2ncnc(Nc3ccc(F)c(Cl)c3)c2cc1OCCCN1CCOCC1 [Gefitinib]
- Iorio_SJCRH30: R

SMILES: COc1ccc(-c2ccc3c(N4CCOC[C@@H]4C)nc(N4CCOC[C@@H]4C)nc3n2)cc1CO [AZD8055]
- Iorio_SJCRH30: R
